The text below walks through data of PMC7321408, “One-Pot Multicomponent Synthesis and Bioevaluation of Tetrahydroquinoline Derivatives as Potential Antioxidants, α-Amylase Enzyme Inhibitors, Anti-Cancerous and Anti-Inflammatory Agents” (Molecules, 2020).

Data set [1] is described as follows: DPPH free radical scavenging assay. As to conditions: mean ± SEM, n = 3; for IC50 (DPPH radical scavenging): concentration to scavenge 50% of the DPPH radicals. The procedure, abridged:
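Compounds at 200, 66.6, 22.2 and 7.4 µg/mL were mixed with DPPH radical, with DMSO as the negative control. Absorbance was read at 630 nm, and % scavenging was calculated as (1 − Abs/Abc) × 100 against the control.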

Data set [2] relates to brine shrimp nauplii. Nature of the data set: Brine shrimp lethality bioassay. The note with it: 24 h, n = 3. It counts as in vivo. The procedure, abridged:
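Ten hatched nauplii per well in artificial seawater were exposed to test compounds at 400, 200, 100 and 50 µg/mL under a lamp. Survivors counted after 24 h; percentage mortality calculated; triplicate.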

Data set [3] can be described thus: MTT cytotoxicity against raw macrophages. It counts as cell-based, albino rats. As to conditions: albino, rat; for viability at 24 h, 1 µM / viability at 24 h, 10 µM / viability at 24 h, 50 µM / viability at 24 h, 100 µM: peritoneal macrophages (raw macrophages), raw macrophages, MTT, read-out: % Cell Viability; for IC50 at 24 h: primary peritoneal macrophages, mean ± SEM, n = 3. The procedure, abridged: (§1)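 Peritoneal macrophages from albino rats were treated for 24 h at 37 °C, 5% CO2 with test compounds at 100, 50, 10 and 1 µM or vehicle, from DMSO stocks. MTT was then added for 2 h, formazan dissolved in DMSO and absorbance read at 570 nm. % viability = blank-corrected sample over blank-corrected control ×100.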

The subject of data set [4] is raw macrophages. Nature of the data set: MTT cytotoxicity against raw macrophages. The note with it: mean ± SEM, n = 3. The data set is classed as cell-based, albino rats. In outline: as §1
For data set [5], the system named is Hep-2C cells. Kind of data set: MTT assay against Hep-2C cells. It counts as cell-based, Human. The note with it: Homo sapiens, Hep2C, read-out: IC50 (Mean ± SEM) Hep-2C Cells. The method, then: Hep-2C cell line experiments were performed in the Immunology Lab of the National Institute of Health (NIH), Islamabad, Pakistan. Human cervix carcinoma cells Hep-2C (ATCC HB-8065) were cultured in Dulbecco’s modified Eagle’s medium (DMEM), comprising 10% fetal calf serum (10% FCS) and supplemented with 2 mM L-glutamine, 100 U/mL penicillin, 100 µg/mL streptomycin and 1 mM Na pyruvate, at 37 °C in a humidified 5% CO2 incubator.
The tetrazolium dye 3-(4, 5-dimethyl thiazolyl-2)-2, 5-diphenyltetrazolium bromide (MTT) was used to assess the cytotoxic potential of the test compounds. In living cells, MTT is reduced into its insoluble purple product formazan, which is measured spectrophotometrically.
Hep-2C cells, in a density of 1 × 10^6 (> 90% cell viability), were cultured in a 96-well plate and treated with different concentrations of the test compounds for 24, 48 and 72 h. Ten microliters of MTT (1 mg per mL) were added per well followed by incubation for 4 h. Insoluble formazan crystals were dissolved by adding 100 µL of DMSO. Cells were then incubated for another 2 h. Absorbance was measured at 570 nm by a microplate reader. Untreated Hep-2C cells were taken as controls and DMSO as a negative. % cell viability = (abssample − absblank)/(abscontrol − absblank) × 100
In general terms: Formazan colour is commonly taken as a measure of viable cells.

Data set [6] deals with NO generated by LPS-induced macrophages. Nature of the data set: Nitric oxide assay (Griess) in LPS-induced macrophages. As to conditions: Mus musculus, Macrophage, 18 h, LPS 1 µg/mL, read-out: % NO Production (Mean ± SEM). It counts as cell-based, murine. The procedure, abridged: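 Murine macrophages (1 × 10^6/well) pre-treated 2 h with compound at 100, 50, 10 or 1 µM, then LPS 1 µg/mL for 18 h. Nitrite in medium measured with Griess reagent at 540 nm against a NaNO2 standard curve; piroxicam as positive control, t-test for significance.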
(Griess reagent forms a coloured azo dye with nitrite.)

The nature of data set [7]: Phosphomolybdenum-based total antioxidant capacity (TAC). The protocol: In the presence of an antioxidant, the phosphomolybdate ion gets reduced and a green phosphate–molybdate complex is formed, which is analyzed spectrophotometrically.
The total antioxidant capacity was determined by using the phosphomolybdenum-based method. The method is based on the reduction of Mo (VI) to Mo (V), leading to the formation of a green-colored phosphate–molybdenum complex that gives absorption at 630 nm. In 96-well plates, 20 µL of the sample was added with 180 µL TAC reagents in it and incubated at 95 °C for 90 min in a water bath and cooled at room temperature. The results were calculated as µg AAE/mg.

Data set [8] in a line: Total reducing power (TRP) assay. The protocol: A TRP assay was carried out to evaluate the reducing potential of synthetic compounds. The method implicates reductones. These reductones are species with antioxidant potential that is believed to be due to their proton-donating capacity. […] The maximum value of reducing power was 104.7 ± 1.9 µg/AAE for SF5, followed by 103.18 ± 2.4 µg/AAE for SF7 and 84.57 ± 1.9 µg/AAE for SF12 (Figure 3 and Figure 4 (standard curve)).
The assay is based on the reduction of Fe^+3 to Fe^+2. The method described by Khan et al. was used with slight modifications. One hundred microliters of test samples (4 mg/mL DMSO) were taken in an Eppendrof tube and 200 μL of phosphate buffer (0.2 mol/L, pH 6.6) and 250 µL of 1% potassium ferricyanide (K3Fe CN)6) were added. This was allowed to incubate at 50 °C for 20 min. Later on, 200 μL of 10% trichloroacetic acid (TCA) was added to the mixture. The mixture was centrifuged at 3000 rpm at room temperature for 10 min. After centrifugation, 150 µL of supernatant were transferred to microplate with FeCl3 (50 μL, 0.1%) and the absorbance was taken at 630 nm. The results were calculated as µg AAE/mg.

In brackets after ≈: the same amount, converted by molar mass. Like-named read-outs stand apart in the source and are kept apart here.

For `CCCN(CCC)CN1CCCc2ccccc21` [SF4, N-((3,4-dihydroquinolin-1(2H)-yl), methyl)-N-propylpropan-1 amine], the “% DPPH Scavenging Activity” value in data set [1] (7.4 µg/mL) worked out at 18.12 ± 0.20%. Also, in data set [1] (22.22 µg/mL), the “% DPPH Scavenging Activity” value is 41.63 ± 0.28%. In addition, in data set [1] (66.66 µg/mL), the “% DPPH Scavenging Activity” value is recorded as 53.65 ± 0.14%. Further, the “% DPPH Scavenging Activity” value in data set [1] (200 µg/mL) is given as 58.58 ± 0.33%. In addition, the “IC50 (DPPH radical scavenging)” value in data set [1] turned out to be 29.79 ± 0.26 µg/mL (≈ 121 µM). In data set [2], the “LD50 ± SEM (brine shrimp lethality)” value worked out at 100 ± 1.78 µg/mL. In addition, in data set [3], the viability (as a rule, the share of living cells, or the viability signal relative to a control) at 24 h, 1 µM was 79 ± 0.92%; the viability at 24 h, 10 µM worked out at 53 ± 0.63%; the viability at 24 h, 50 µM was 42 ± 0.87%; the viability at 24 h, 100 µM was determined as 39 ± 0.88%. Besides, the IC50 (as a rule, the concentration that inhibits the measured activity by half) at 24 h in data set [3] is 7.208 ± 0.05 µM. In addition, it took 7.2 ± 0.05 µM to reach half-maximal inhibition in data set [4] (IC50). In addition, the IC50 in data set [5] (24 h) amounted to 23.9 ± 1.07 µM. Also, in data set [5] (48 h), the IC50 stood at 21.2 ± 1.2 µM. Further, the IC50 in data set [5] (72 h) was determined as 15.5 ± 1.03 µM. Moreover, in data set [6], the activity at 1 µM worked out at 43.03 ± 0.41%, the activity at 10 µM worked out at 39.17 ± 0.38%, the activity at 50 µM amounted to 32.05 ± 0.31% and the activity at 100 µM was 20.2 ± 0.28%.
As for `COc1ccc(NCN2CCCc3ccccc32)cc1` [SF12, N-((3,4-dihydroquinolin-1(2H)-yl)methyl)-4-methoxyaniline], the “% DPPH Scavenging Activity” value in data set [1] (7.4 µg/mL) amounted to 11.24 ± 0.11%. In addition, the “% DPPH Scavenging Activity” value in data set [1] (22.22 µg/mL) is on record as 31.80 ± 0.42%. Further, the “% DPPH Scavenging Activity” value in data set [1] (66.66 µg/mL) is on record as 54.10 ± 0.17%. Also, the “% DPPH Scavenging Activity” value in data set [1] (200 µg/mL) was 64.20 ± 0.31%. Further, the “IC50 (DPPH radical scavenging)” value in data set [1] stood at 39.33 ± 0.28 µg/mL (≈ 147 µM). Moreover, in data set [7], the “Total antioxidant capacity (TAC)” value is listed as 191.19 ± 1.1231 µg/AAE. Moreover, in data set [8], the “Total reducing power (TRP)” value was 84.57 ± 1.9 µg/AAE. In addition, the “LD50 ± SEM (brine shrimp lethality)” value in data set [2] is 128 ± 1.87 µg/mL. Also, in data set [3], the viability at 24 h, 1 µM is 87 ± 0.82%; the viability at 24 h, 10 µM was determined as 84 ± 0.87%; the viability at 24 h, 50 µM was 57 ± 0.89%; the viability at 24 h, 100 µM was found to be 41 ± 0.86%. Further, it took 35.1 ± 0.5 µM to reach half-maximal inhibition in data set [3] (IC50 at 24 h). In data set [6], the activity at 1 µM was found to be 49.7 ± 0.61%, the activity at 10 µM was found to be 32.3 ± 0.59%, the activity at 50 µM came to 26.5 ± 0.578% and the activity at 100 µM stood at 23.2 ± 0.55%.
